{"source": "patent US12102063B2", "about": "(SYNEXIS LLC, priority 2017, dated 2024)", "key": {"Influenza A (H1N1)": {"system": "Influenza A (H1N1)", "experimental": "Glass slides (1″×3″) are ethanol-sanitized and autoclaved prior to testing. The slides (carriers) are placed into sterile plastic petri dishes until use. Aliquots (0.010 ml) of diluted stock Influenza A (H1N1) are aseptically spread over a 1″×1″ square area of the carrier slide to prepare a virus film.\nVirus Control carriers are placed into an adjacent modular room with the lids removed. One additional glass slide (with no virus film) is also placed into each testing chamber to perform cytotoxicity and neutralization validation controls. Upon closure of the respective study contact times (T=60 min and T=120 min), duplicate carriers are removed from each testing chamber. Duplicate carriers are also removed from the control modular room at each time point. Duplicate time zero carriers are harvested and enumerated promptly by eluting the films with 2 ml of influenza Infection Medium. Serial dilutions (1:10) are performed and dilutions 10−^1 to 10−^5 are plated in quadruplicate onto Madin-Darby Canine Kidney (MDCK) cell monolayers prepared to suitable confluency. Cell culture assay trays are incubated at 35° C. on an orbital rotator (60 rotations/minute) for 60 minutes to facilitate viral-host adsorption. Trays are removed from incubation, and Influenza infection Media is pipetted into each well (−1.0 ml). The trays are incubated for 7 days. The assay trays are observed regularly for the presence of cytotoxicity, viral cytopathic effects, and contamination. At the end of 7 days, plates are scored and the Spearman-Karber Method is used to compute viral titers and levels of cytotoxicity."}, "[1]": {"system": "A. brasiliensis ATCC 16404", "method": "(§2) 24 and 48 hour test cultures of S. aureus, as well as all A. brasiliensis and C. difficile are prepared with 0.1% Triton X-100. A 6 hour test culture of S. aureus is prepared with 5.0% Petal Bovine Serum and no Triton. Carriers (slides) are inoculated, in duplicate per test microorganism per condition, at a target concentration of 1×10^6 CPU/Carrier. Inoculated carriers are allowed to dry at ambient temperatures, and are then placed in respective conditions to endure contact times. Carriers for S. aureus endured contact times of 6, 24, and 48 hours. Carriers for A. brasiliensis endured contact times of 12, 24, and 48 hours. […] After respective contact times, carriers are harvested in 10.0 mL of D/E Broth, vortex mixed, diluted, and plated on the appropriate growth media for each microorganism. Environmental conditions are monitored using the Drager Rohrchen, and Drager Polytron methods described in Example 1. (Note: The limit of detection for this assay is 5.0 CPU. Samples with no detectable colonies are listed as <5.00E+OO in the table)."}, "Aspergillus fumigatus": {"system": "Aspergillus fumigatus", "details": "hatchery after DHP treatment"}, "[2]": {"system": "bacteria on commercial eggs", "method": "For sampling, individual eggs are placed in Whirl-Pak bags containing 10 milliliters (ml) of tryptic soy broth and manually rubbed in bag for 1 minute each. The washed eggs are discarded. One (1) ml from each sample is transferred to a deep well plate in triplicate and 10 fold serial dilutions performed with tryptic soy broth to 10−^11 dilution. The deep well plates are incubated for 24 hours at 37° C. After incubation, 5 microliters (5 μl) of each well is stamped onto a 96-well plate containing either tryptic soy agar (TSA) or MacConkey (Macx) agar. TSA agar is a non-selective, general purpose media. Macx agar is a selective, differential culture media for Gram-negative enteric bacilli. The agar plates are incubated 24 hours at 37° C. and then scored for bacterial growth.\nA similar experiment is performed under egg cooler conditions. […] In this experiment, 300 commercial eggs are placed in the cooler and twenty (20) eggs are sampled, four times over five (5) days at 0 hours, 24 hours, 72 hours, and 120 hours as described above."}, "Other blue green": {"system": "Other blue green", "details": "hatchery after DHP treatment", "excerpt": "(§1) Hatcheries and chick production facilities are subject to heavy bacterial loads that are difficult to control. In addition to the animals themselves, there is a significant contamination of the facilities from the outside."}, "Total bacteria": {"system": "Total bacteria", "details": "hatchery after DHP treatment", "excerpt": "as §1"}, "[3]": {"system": "S. aureus ATCC 33592 (MRSA)", "method": "as §2"}, "[4]": {"details": "Modular Room, 120 minutes contact"}}, "note": "Where “and” joins values, the source holds several entries; their conditions need not be identical. Equal values may be shown once. Read-outs that look alike come from different tables or passages of the source.", "data": [{"smiles": "OO", "note": "[DHP, dry hydrogen peroxide]", "values": [{"measurement": "Log10", "setting": "Influenza A (H1N1); Hood Chamber, 60 minutes contact", "value": ">=2.62 Log10"}, {"measurement": "Log10", "setting": "Influenza A (H1N1); Hood Chamber, 120 minutes contact", "value": ">=1.87 Log10"}, {"measurement": "% Reduction", "setting": "Influenza A (H1N1); Modular Room, 60 minutes contact", "value": 87, "unit": "%"}, {"measurement": "Log10", "setting": "Influenza A (H1N1); Modular Room, 60 minutes contact, DHP 0.6-1.0 ppm", "value": 0.87, "unit": "Log10"}, {"measurement": "% Reduction", "setting": "Influenza A (H1N1); [4]", "value": 76, "unit": "%"}, {"measurement": "Log10", "setting": "Influenza A (H1N1); [4]", "value": 0.62, "unit": "Log10"}, {"measurement": "Average CFU/Carrier", "setting": "[1]; 12 Hours, Hood (Treated)", "value": "2.18E+06", "unit": "CFU/Carrier"}, {"measurement": "Log Reduction compared to Control", "setting": "[1]; 12 Hours, Hood (Treated)", "value": 0.02, "unit": "Log"}, {"measurement": "Percent Reduction compared to Control", "setting": "[1]; 12 Hours, Hood (Treated)", "value": 4.40, "unit": "%"}, {"measurement": "Average CFU/Carrier", "setting": "[1]; 12 Hours, Room (Treated)", "value": "3.10E+06", "unit": "CFU/Carrier"}, {"measurement": "Log Reduction compared to Control", "setting": "[1]; 12 Hours, Room (Treated)", "value": "None"}, {"measurement": "Percent Reduction compared to Control", "setting": "[1]; 12 Hours, Room (Treated)", "value": "None"}, {"measurement": "Average CFU/Carrier", "setting": "[1]; 24 Hours, Hood (Treated)", "value": "9.75E+05", "unit": "CFU/Carrier"}, {"measurement": "Log Reduction compared to Control", "setting": "[1]; 24 Hours, Hood (Treated)", "value": 0.29, "unit": "Log"}, {"measurement": "Percent Reduction compared to Control", "setting": "[1]; 24 Hours, Hood (Treated)", "value": 48.68, "unit": "%"}, {"measurement": "Average CFU/Carrier", "setting": "[1]; 24 Hours, Room (Treated)", "value": "1.43E+06", "unit": "CFU/Carrier"}, {"measurement": "Log Reduction compared to Control", "setting": "[1]; 24 Hours, Room (Treated)", "value": 0.12, "unit": "Log"}, {"measurement": "Percent Reduction compared to Control", "setting": "[1]; 24 Hours, Room (Treated)", "value": 25.00, "unit": "%"}, {"measurement": "Replicate CFU/Carrier", "setting": "[1]; 24 Hours, Room (Treated)", "value": "1.75E+06", "unit": "CFU/Carrier"}, {"measurement": "Average CFU/Carrier", "setting": "[1]; 48 Hours, Hood (Treated)", "value": "6.75E+05", "unit": "CFU/Carrier"}, {"measurement": "Log Reduction compared to Control", "setting": "[1]; 48 Hours, Hood (Treated)", "value": 0.28, "unit": "Log"}, {"measurement": "Percent Reduction compared to Control", "setting": "[1]; 48 Hours, Hood (Treated)", "value": 47.06, "unit": "%"}, {"measurement": "Average CFU/Carrier", "setting": "[1]; 48 Hours, Room (Treated)", "value": "1.70E+06", "unit": "CFU/Carrier"}, {"measurement": "Log Reduction compared to Control", "setting": "[1]; 48 Hours, Room (Treated)", "value": "None"}, {"measurement": "Percent Reduction compared to Control", "setting": "[1]; 48 Hours, Room (Treated)", "value": "None"}, {"measurement": "Post", "setting": "Aspergillus fumigatus", "value": 1}, {"measurement": "growth on Mac, treated group", "setting": "[2]; 72 hours compared to 0 hours, p=0.001", "value": "significantly less growth"}, {"measurement": "growth on Mac, treated group", "setting": "[2]; 120 hours compared to 0 hours, p=0.0001", "value": "significantly more growth"}, {"measurement": "growth on Mac, treated group", "setting": "[2]; 120 hours compared to 0 hours, p=0.05", "value": "significantly less growth"}, {"measurement": "Mac growth with treatment", "setting": "[2]; egg cooler, 0-120 hours", "value": "low throughout"}, {"measurement": "TSA growth with treatment", "setting": "[2]; egg cooler, 0-120 hours", "value": "static until 120 hours"}, {"measurement": "Post", "setting": "Other blue green", "value": 56}, {"measurement": "Reduction", "setting": "Total bacteria", "value": "over 90%"}, {"measurement": "% Reduction compared", "setting": "[3]; 6 Hours, Hood (Treated)", "value": 95.150, "unit": "%"}, {"measurement": "Log Reduction compared to", "setting": "[3]; 6 Hours, Hood (Treated)", "value": 1.31, "unit": "Log"}, {"measurement": "% Reduction compared", "setting": "[3]; 6 Hours, Room (Treated)", "value": 83.053, "unit": "%"}, {"measurement": "Log Reduction compared to", "setting": "[3]; 6 Hours, Room (Treated)", "value": 0.77, "unit": "Log"}, {"measurement": "% Reduction compared", "setting": "[3]; 24 Hours, Hood (Treated)", "value": ">66.667", "unit": "%"}, {"measurement": "Log Reduction compared to", "setting": "[3]; 24 Hours, Hood (Treated)", "value": ">0.48", "unit": "Log"}, {"measurement": "Replicate CFU/Carrier", "setting": "[3]; 24 Hours, Hood (Treated)", "value": "<5.00E+00", "unit": "CFU/Carrier"}, {"measurement": "% Reduction compared", "setting": "[3]; 24 Hours, Room (Treated)", "value": ">88.889", "unit": "%"}, {"measurement": "Average CFU/Carrier", "setting": "[3]; 24 Hours, Room (Treated)", "value": "<5.00E+00", "unit": "CFU/Carrier"}, {"measurement": "Log Reduction compared to", "setting": "[3]; 24 Hours, Room (Treated)", "value": ">0.95", "unit": "Log"}, {"measurement": "Replicate CFU/Carrier", "setting": "[3]; 24 Hours, Room (Treated)", "value": "5.00E+00 CFU/Carrier and <5.00E+00 CFU/Carrier"}, {"measurement": "% Reduction compared", "setting": "[3]; 48 Hours, Hood (Treated)", "value": ">78.947", "unit": "%"}, {"measurement": "Log Reduction compared to", "setting": "[3]; 48 Hours, Hood (Treated)", "value": ">0.68", "unit": "Log"}, {"measurement": "Replicate CFU/Carrier", "setting": "[3]; 48 Hours, Hood (Treated)", "value": "<5.00E+00", "unit": "CFU/Carrier"}, {"measurement": "% Reduction compared", "setting": "[3]; 48 Hours, Room (Treated)", "value": ">89.474", "unit": "%"}, {"measurement": "Average CFU/Carrier", "setting": "[3]; 48 Hours, Room (Treated)", "value": "<5.00E+00", "unit": "CFU/Carrier"}, {"measurement": "Log Reduction compared to", "setting": "[3]; 48 Hours, Room (Treated)", "value": ">0.98", "unit": "Log"}, {"measurement": "Replicate CFU/Carrier", "setting": "[3]; 48 Hours, Room (Treated)", "value": "<5.00E+00", "unit": "CFU/Carrier"}]}]}
